The values below come from PMC8220418, “A fragment-based approach to assess the ligandability of ArgB, ArgC, ArgD and ArgF in the L-arginine biosynthetic pathway of Mycobacterium tuberculosis” (Computational and Structural Biotechnology Journal, 2021).

The target of assay [1] is T1, ArgF (Mycobacterium tuberculosis, UniProt P9WIT9). Description: biochemical. The format is binding. As to conditions: for ΔTm at 5000 µM: fragments at 5 mM, 5 µM ArgF, 5% DMSO.
Description: Fragment screening was carried out in a 96-well PCR plate using a CFX Connect Real-time PCR Detection System (Bio-Rad) for DSF. […] For ArgF each 25 μL reaction mixture contained 5 µM ArgF, 25 mM Tris-HCl (pH 8.0), 150 mM NaCl, 5x SYPRO Orange dye, 5 mM fragments and 5% DMSO (v/v). […] The protocol implemented increased temperature by 0.5 °C after every 30 s, going from 25 °C to 95 °C and measuring SYPRO Orange fluorescence for each temperature cycle. The melt curve RFU (relative fluorescence units) and derivative -d(RFU)/dT values were analysed and plotted using a macros-enabled Excel Workbook: the minima of the melt curves were recorded as the melting temperature (Tm) of the enzymes in the presence of each fragment. The Tm of the reference control (protein in the presence of DMSO) was subtracted from all the readings to calculate ΔTm.
Assay [2] deals with T1, ArgF. Description: Isothermal titration calorimetry with ArgF. The format is binding. As to conditions: 25 °C, single-site model; read-out: ITC Kd. The procedure:
ArgF was dialysed in 50 mM HEPES pH 8.0, 200 mM NaCl before it was loaded into the calorimetry cell at concentrations of 75–100 μM with the addition of 1 mM DTT. Ligand solutions at concentrations of 1 mM were dissolved in the same buffer and typically injected between 0.5 μL and 2 μL at 150 s intervals with stirring at 750 rpm. Buffer-ligand titrations were carried out as reference runs and subtracted from the protein–ligand titration to remove the heat of dilution. Data were analysed by fitting a simple single-site model using Origin software (Microcal).
(In general: ITC needs no label: the signal is the heat of the interaction.)

For assay [3], the system named is M. tuberculosis MDR strain V2475. In words: microbe, parasite or virus in culture. In kind it is cell-based, Mycobacterium tuberculosis. The conditions noted are these: for MIC: Mycobacterium tuberculosis.
Assay [4] addresses T2, ArgB (Mycobacterium tuberculosis, UniProt P9WQ01). In words: biochemical. As to conditions: 25 °C, single-site model; read-out: ITC Kd. The format is binding.
Assay [5] concerns the target T2, ArgB. Description: ArgB enzymatic assay (ADP release coupled to NADH oxidation, pyruvate kinase/lactate dehydrogenase). In kind it is biochemical. As to conditions: for IC50: 0.5 µM ArgB, 0.3 mM ATP, 1.25 mM NAG, 10% DMSO, read-out: IC50; for Nature of ArgB inhibition in enzymatic competition assays: 0.3 mM ATP or NAG, other substrate varied. The procedure:
ArgB activity was assessed by a colorimetric assay that followed the release of ADP by measuring the oxidation of NADH at 340 nm, for 30 min, in the presence of pyruvate kinase and lactate dehydrogenase in a PHERAstar plate-reader (BMG-Labtech). […]. Inhibitors were also individually screened against the coupled enzymes to eliminate any compounds interfering with the other assay components. Competition assays were performed in the same conditions using 0.3 mM of ATP or NAG and varying the other substrate concentration.

The target in assay [6] is T2, ArgB. Description: Differential scanning fluorimetry (DSF) fragment screening against ArgB. The format is binding. As to conditions: fragments at 5 mM, 10 µM ArgB, 5% DMSO. How it is done: Fragment screening was carried out in a 96-well PCR plate using a CFX Connect Real-time PCR Detection System (Bio-Rad) for DSF. For ArgB, each 25 μL reaction mixture contained 10 µM ArgB, 100 mM HEPES (pH 7.5), 200 mM NaCl, 5x SYPRO Orange, 5% DMSO (v/v), and fragments at 5 mM. For ArgF each 25 μL reaction mixture contained 5 µM ArgF, 25 mM Tris-HCl (pH 8.0), 150 mM NaCl, 5x SYPRO Orange dye, 5 mM fragments and 5% DMSO (v/v). For ArgC and ArgD, the 25 μL reaction volume consisted of the following: 2.5 μM ArgC/5 μM ArgD, 100 mM sodium phosphate pH 7, 200 mM NaCl, 5x SYPRO Orange, and 5 mM fragments (960 fragment library). The protocol implemented increased temperature by 0.5 °C after every 30 s, going from 25 °C to 95 °C and measuring SYPRO Orange fluorescence for each temperature cycle. The melt curve RFU (relative fluorescence units) and derivative -d(RFU)/dT values were analysed and plotted using a macros-enabled Excel Workbook: the minima of the melt curves were recorded as the melting temperature (Tm) of the enzymes in the presence of each fragment. The Tm of the reference control (protein in the presence of DMSO) was subtracted from all the readings to calculate ΔTm.
A general note: Differential scanning fluorimetry follows unfolding on heating by fluorescence.

Another assay relates to M. tuberculosis ΔargB-c. In words: microbe, parasite or virus in culture. In kind it is cell-based, Mycobacterium tuberculosis. As to conditions: for MIC: Mycobacterium tuberculosis.
In assay [7] the target is T2, ArgB. In words: Ligand-observed NMR (CPMG) with ArgB, incl. displacement experiments. In kind it is binding. The conditions noted are these: 2 mM fragment, 10 µM ArgB; for NMR competition with natural ligands (ATP, NAG, L-arginine): 1 mM each natural ligand.
The target of assay [8] is T2, ArgB. In words: Ligand-observed NMR (STD) with ArgB. In kind it is binding. As to conditions: 2 mM fragment, 10 µM ArgB.
In the next assay the test system is M. tuberculosis H37Rv. In words: microbe, parasite or virus in culture. In kind it is cell-based, Mycobacterium tuberculosis. The conditions noted are these: for MIC: Mycobacterium tuberculosis, media without arginine; for Inhibitory activity on growth with arginine present: arginine (1 mM) in the media.
Assay [9] concerns the target T3, ArgD (Mycobacterium tuberculosis, UniProt P9WPZ7). Description: Surface plasmon resonance with immobilised ArgD. As to conditions: fragments at 1 mM, adjusted for molecular weight. In kind it is binding. In general terms: In SPR one partner is held on a chip, and binding of the other changes the refractive index at the surface.
For assay [10], the target named is T3, ArgD. In words: ArgD end point enzymatic assay (reverse reaction, 2-aminobenzaldehyde, 440 nm). The format is biochemical. How it is done:
To assess the activity of ArgD an end point assay that follows the reverse reaction of the enzyme was used in the presence and absence of fragments. Reactions (100 μL) were set up containing the following: 100 mM Tris-HCl pH 8, 3 mM N-acetylornithine (NAO), 3.4 mM α-KG, 20 μM PLP and 4 μM enzyme. Duplicate reaction mixtures were prepared for each time point and 8 time points (0, 5, 10, 15, 20, 30, 45, 60 min) were tested in total. Two controls were prepared: one with all reaction components except the enzyme, and the other with all reaction components except NAO (NAO was added after HCl treatment). The reactions tubes were allowed to equilibrate in a heating block set at 37 °C for two minutes, and the enzyme was added to initiate the reaction. After the stipulated incubation times, contents of the reaction tubes were quickly transferred to 1.5 ml microcentrifuge tubes containing 60 μL of 6 N HCl to stop the reactions. These tubes were then kept in a heating block set at 95 °C for 30 min, after which they were cooled to 25 °C in a water bath. 200 μL of 3.6 M sodium acetate was added to each tube (final concentration of 1.8 M), along with 40 μL of 30 mM 2-aminobenzaldehyde (final concentration of 3 mM in a total volume of 400 μL). A yellow colouration started developing as soon as the latter was added, the contents were vortexed and the tubes were incubated at 25 °C for 15 min. 200 μL of each reaction mixture was transferred into wells of a 96-well flat bottom UV transparent microplate, and absorbance at 440 nm was measured using the PHERAstar plate reader. All experiments were performed at least in triplicate in a PHERAstar plate-reader (BMG-Labtech) and the control without ArgD was used for blank subtraction. Data were analysed with GraphPad Prism (Graphpad Software). All reagents were obtained from Sigma-Aldrich.
Aminotransferases are often assayed for the reverse reactions they catalyse because in most cases substrates for the forward reaction are not commercially sold. […]

Assay [11] addresses T3, ArgD. Description: Differential scanning fluorimetry (DSF) against ArgD. In kind it is binding. The conditions noted are these: fragments at 5 mM, PLP-unsaturated ArgD.
For a further assay, the system named is M. tuberculosis. Details: method as in PMID 29483133. The conditions noted are these: BALB/c mice, chemical inhibition of ArgJ; cited from earlier work.

≈ marks a conversion by molar mass, not a printed value.

What is called ΔTm is the change in melting temperature against a reference sample. Usually Kd stands for the free concentration of one partner at which half of the binding sites on the other are occupied at equilibrium, for simple one-to-one binding. The term IC50 denotes the concentration that gives 50% inhibition. A word on the % inhibition: it is the change of the read-out against control, counted positive when it falls. A high value points to strong suppression. One may read the inhibition as the drop in the measured response relative to a control, in per cent.

T1 sequence (P9WIT9 whole entry, the tested form may be a part): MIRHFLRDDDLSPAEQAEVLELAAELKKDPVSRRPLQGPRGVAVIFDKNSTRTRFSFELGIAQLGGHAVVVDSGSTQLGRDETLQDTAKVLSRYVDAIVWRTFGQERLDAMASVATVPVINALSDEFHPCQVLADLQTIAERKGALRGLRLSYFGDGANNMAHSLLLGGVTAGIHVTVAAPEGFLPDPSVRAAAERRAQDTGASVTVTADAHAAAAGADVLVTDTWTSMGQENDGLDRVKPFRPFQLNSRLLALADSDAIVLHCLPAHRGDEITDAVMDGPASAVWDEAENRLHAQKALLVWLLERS
T3 sequence (P9WPZ7 whole entry, the tested form may be a part): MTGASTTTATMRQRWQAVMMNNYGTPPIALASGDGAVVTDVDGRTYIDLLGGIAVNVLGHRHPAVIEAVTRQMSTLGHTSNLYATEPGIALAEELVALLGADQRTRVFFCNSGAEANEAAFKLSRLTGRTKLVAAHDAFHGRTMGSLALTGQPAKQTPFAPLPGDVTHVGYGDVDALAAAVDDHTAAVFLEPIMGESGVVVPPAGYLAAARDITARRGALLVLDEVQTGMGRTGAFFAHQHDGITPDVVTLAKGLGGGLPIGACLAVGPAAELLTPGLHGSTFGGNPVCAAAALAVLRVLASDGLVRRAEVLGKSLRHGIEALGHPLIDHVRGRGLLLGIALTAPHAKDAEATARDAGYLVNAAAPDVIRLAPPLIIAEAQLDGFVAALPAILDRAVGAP

Consider `NC(=O)NCCC[C@H](N)C(=O)O` [L-citruline, L-citrulline, reference compound], for which, on ArgF [1] (natural ligands at 1 mM, read-out: DSF ΔTm), the ΔTm at 1000 µM worked out at 1 °C.

Turning to `NCCC[C@H](N)C(=O)O` [L-ornithine, reference compound], the “DSF ΔTm” value on ArgF [1] (natural ligands at 1 mM) was determined as 1.5 °C.

As to `Cc1sc(N)nc1-c1ccccc1` [NMR007], on ArgF [2], the dissociation constant (Kd) was 161 ± 20 µM. Further, the ΔTm at 5000 µM on ArgF [1] (read-out: DSF ΔTm) came to 3 °C.

`O=c1cc[nH]c2c(C(F)(F)F)cccc12` [NMR446, 8-(trifluoromethyl)-1H-quinolin-4-one] gave an MIC in assay [3] above 200 µg/mL. Moreover, on ArgB [4], the Kd came out at 24 ± 1.5 µM. Besides, at ArgB [5], the IC50 came out at 707 ± 7 µM and the “Nature of ArgB inhibition in enzymatic competition assays” value is given as “non-competitive”. The ΔTm at 5000 µM on ArgB [6] came out at 8 °C. For the same compound, in the assay with M. tuberculosis ΔargB-c, the “Inhibitory activity on growth with arginine present” value (“Inhibitory activity on growth” for short) is “no inhibitory activity” and the MIC is above 200 µg/mL. For the same compound, on ArgB [7], the CPMG entry was “binds” and the “NMR competition with natural ligands (ATP, NAG, L-arginine)” value is recorded as “not competitive”. The STD entry at ArgB [8] is “binds”. For the same compound, in the assay on M. tuberculosis H37Rv, the MIC was above 200 µg/mL and the “Inhibitory activity on growth” value is reported as “no inhibitory activity”.

As to `O=C(O)c1cc2ccccc2cc1O` [NMR608, 3-Hydroxy-2-naphthoic acid], the “SPR Binding Response with PLP injection” value on ArgD [9] was 50.3 RU. Besides, on ArgD [10] (2 mM fragment, 4 μM ArgD), the “% inhibition at 2 mM” value came out at 16.6% and the inhibition at 2000 µM turned out to be 16%. The inhibition at 4000 µM on ArgD [10] (read-out: % inhibition at 4 mM, 4 mM fragment, 4 μM ArgD) was 31%. The ΔTm at 5000 µM on ArgD [11] worked out at 2.4 °C.

For `O=c1cc(C(F)(F)F)[nH]c2c(C(F)(F)F)cccc12` [NMR711, 2,8-bis(trifluoromethyl)-1H-quinolin-4-one], the MIC in assay [3] lay in the range of 25 to 50 µg/mL (≈ 88.9 to 178 µM). Further, the “Inhibitory activity on growth” value in assay [3] (V2475, arginine (1 mM) in the media) is “inhibitory”. Also, the Kd at ArgB [4] came to 7.7 ± 0.8 µM. Moreover, at ArgB [5], the IC50 stood at 366 ± 4 µM and the “Nature of ArgB inhibition in enzymatic competition assays” value was “non-competitive”. Moreover, at ArgB [6], the ΔTm at 5000 µM was 7.9 °C. Also, in the assay on M. tuberculosis ΔargB-c, the “Inhibitory activity on growth” value is given as “inhibitory” and the MIC lay in the range of 25 to 50 µg/mL (≈ 88.9 to 178 µM). Further, at ArgB [7], the CPMG result was “binds” and the “NMR competition with natural ligands (ATP, NAG, L-arginine)” value is on record as “not competitive”. In addition, the STD entry on ArgB [8] is on record as “binds”. In addition, in the assay with M. tuberculosis H37Rv, the MIC was in the range of 25 to 50 µg/mL (≈ 88.9 to 178 µM) and the “Inhibitory activity on growth” value is given as “inhibitory”.

Regarding `OB(O)c1cc(Cl)cc(Cl)c1` [NMR812], the Kd at ArgF [2] came out at 120 ± 30 µM. Moreover, the ΔTm at 5000 µM on ArgF [1] (read-out: DSF ΔTm) amounted to 3.6 °C.

`O=C(Nc1cccc2c(=O)cc(-c3nnn[nH]3)oc12)c1ccc(OCCCCc2ccccc2)cc1` [Pranlukast]: the “Effect on chronic M. tuberculosis infection” value with M. tuberculosis is on record as “cleared a chronic M. tuberculosis infection”.
